Measurements: patent publication US6852759B2, “Process for the synthesis of trans-alkenoic acids, use thereof” (priority 2002, dated 2005)
Read-outs that look alike come from different tables or passages of the source. Marks after values point to notes of the source that are not given here.

Experiments:
[1] = system: acetaminophen (APAP) in mice; experiment: Hepatoprotective activity, curative study, acetaminophen (APAP) after diethyl-ether; format: in vivo
[2] = system: CCl4 administration in mice
[3] = system: CCl4 induced hepatic injury in rats; experiment: Hepatoprotective activity, curative study, CCl4; format: in vivo
[4] = 12.5 mg/kg p.o. + APAP, curative
[5] = 100 mg/kg p.o. + APAP, curative
[6] = TCA alone 100 mg/kg p.o., no APAP, curative study
[7] = 12.5 mg/kg p.o. 1 h before CCl4, mice
[8] = 25 mg/kg p.o. 1 h before CCl4, mice
[9] = 50 mg/kg p.o. 1 h before CCl4, mice
[10] = 100 mg/kg p.o. 1 h before CCl4, mice
[11] = 12.5 mg/kg p.o. + CCl4, curative
[12] = 100 mg/kg p.o. + CCl4, curative

CCCCCCCC/C=C/CCCCCCCCCCCCCC(=O)O [TCA, t-Tetracos-15-enoic acid]
Serum ALP [1, 4]: 50.41 ± 3.07^NS μmole of p-nitophenol formed/min/L | Serum ALP, hepatoprotective activity percent [1, 4]: (21.27 ± 9.50) percent | Serum GOT [1, 4]: 1079.43 ± 98.66^NS Units | Serum GOT, hepatoprotective activity percent [1, 4]: (25.66 ± 7.72) percent | Serum GPT [1, 4]: 431.85 ± 25.52 Units | Serum GPT, hepatoprotective activity percent [1, 4]: (49.67 ± 2.81) percent | Serum Triglycerides [1, 4]: 14.72 ± 0.68^NS mg % | Serum Triglycerides, hepatoprotective activity percent [1, 4]: (28.28 ± 8.27) percent | Serum ALP ([1]; 25 mg/kg p.o. + APAP, curative): 46.23 ± 1.73 μmole of p-nitophenol formed/min/L | Serum ALP, hepatoprotective activity percent ([1]; 25 mg/kg p.o. + APAP, curative): (34.15 ± 5.39) percent | Serum GOT ([1]; 25 mg/kg p.o. + APAP, curative): 880.10 ± 60.29 Units | Serum GOT, hepatoprotective activity percent ([1]; 25 mg/kg p.o. + APAP, curative): (41.26 ± 4.72) percent | Serum GPT ([1]; 25 mg/kg p.o. + APAP, curative): 320.07 ± 41.33 Units | Serum GPT, hepatoprotective activity percent ([1]; 25 mg/kg p.o. + APAP, curative): (67.52 ± 7.71) percent | Serum Triglycerides ([1]; 25 mg/kg p.o. + APAP, curative): 13.47 ± 0.89^NS mg % | Serum Triglycerides, hepatoprotective activity percent ([1]; 25 mg/kg p.o. + APAP, curative): (43.32 ± 10.80) percent | Serum ALP ([1]; 50 mg/kg p.o. + APAP, curative): 41.44 ± 1.27 μmole of p-nitophenol formed/min/L | Serum ALP, hepatoprotective activity percent ([1]; 50 mg/kg p.o. + APAP, curative): (49.04 ± 3.94) percent | Serum GOT ([1]; 50 mg/kg p.o. + APAP, curative): 619.36 ± 88.89 Units | Serum GOT, hepatoprotective activity percent ([1]; 50 mg/kg p.o. + APAP, curative): (61.67 ± 6.96) percent | Serum GPT ([1]; 50 mg/kg p.o. + APAP, curative): 282.74 ± 32.96 Units | Serum Triglycerides ([1]; 50 mg/kg p.o. + APAP, curative): 12.34 ± 0.85 mg % | Serum Triglycerides, hepatoprotective activity percent ([1]; 50 mg/kg p.o. + APAP, curative): (56.84 ± 10.23) percent | Serum ALP [1, 5]: 35.08 ± 2.18 μmole of p-nitophenol formed/min/L | Serum ALP, hepatoprotective activity percent [1, 5]: (68.82 ± 6.78) percent | Serum GOT [1, 5]: 310.53 ± 45.32 Units | Serum GOT, hepatoprotective activity percent [1, 5]: (85.85 ± 4.25) percent | Serum GPT [1, 5]: 235.59 ± 22.77 Units | Serum GPT, hepatoprotective activity percent [1, 5]: (83.33 ± 1.99) percent | Serum Triglycerides [1, 5]: 10.87 ± 0.69 mg % | Serum Triglycerides, hepatoprotective activity percent [1, 5]: (74.48 ± 8.37) percent | Serum ALP [1, 6]: 22.57 ± 2.95 μmole of p-nitophenol formed/min/L | Serum GOT [1, 6]: 133.77 ± 20.84 Units | Serum GPT [1, 6]: 129.65 ± 24.84 Units | Serum Triglycerides [1, 6]: 7.43 ± 0.89 mg % | Zoxazolamine Hepatoprotection [2, 7]: 40.10 ± 6.55% | Zoxazolamine Paralysis time [2, 7]: 39.00 ± 1.93*^c min | Zoxazolamine Hepatoprotection [2, 8]: 51.40 ± 11.12% | Zoxazolamine Paralysis time [2, 8]: 35.66 ± 3.28**^c min | Zoxazolamine Hepatoprotection [2, 9]: 70.61 ± 7.68% | Zoxazolamine Paralysis time [2, 9]: 30.00 ± 2.26**^c min | Zoxazolamine Hepatoprotection [2, 10]: 84.17 ± 6.55% | Zoxazolamine Paralysis time [2, 10]: 26.00 ± 1.93**^c min | Serum ALP [3, 11]: 51.81 ± 3.94^NS μmole of p-nitrophenol formed/min/L | Serum ALP, hepatoprotective activity percent [3, 11]: (27.87 ± 9.48) percent | Serum Bilirubin [3, 11]: 0.54 ± 0.02 mg % | Serum Bilirubin, hepatoprotective activity percent [3, 11]: (44.52 ± 3.66) percent | Serum GOT [3, 11]: 524.23 ± 34.93 Units | Serum GOT, hepatoprotective activity percent [3, 11]: (37.12 ± 5.14) percent | Serum GPT [3, 11]: 1001.86 ± 48.55 Units | Serum GPT, hepatoprotective activity percent [3, 11]: (35.59 ± 3.37) percent | Serum Triglycerides [3, 11]: 12.57 ± 0.61^NS mg % | Serum Triglycerides, hepatoprotective activity percent [3, 11]: (24.12 ± 10.07) percent | Serum ALP ([3]; 25 mg/kg p.o. + CCl4, curative): 50.92 ± 1.62 μmole of p-nitrophenol formed/min/L | Serum ALP, hepatoprotective activity percent ([3]; 25 mg/kg p.o. + CCl4, curative): (34.03 ± 3.89) percent | Serum Bilirubin ([3]; 25 mg/kg p.o. + CCl4, curative): 0.47 ± 0.03 mg % | Serum Bilirubin, hepatoprotective activity percent ([3]; 25 mg/kg p.o. + CCl4, curative): (53.51 ± 4.06) percent | Serum GOT ([3]; 25 mg/kg p.o. + CCl4, curative): 448.28 ± 54.88 Units | Serum GOT, hepatoprotective activity percent ([3]; 25 mg/kg p.o. + CCl4, curative): (48.31 ± 8.808) percent | Serum GPT ([3]; 25 mg/kg p.o. + CCl4, curative): 772.68 ± 47.66 Units | Serum GPT, hepatoprotective activity percent ([3]; 25 mg/kg p.o. + CCl4, curative): (51.52 ± 3.31) percent | Serum Triglycerides ([3]; 25 mg/kg p.o. + CCl4, curative): 11.81 ± 1.05^NS mg % | Serum Triglycerides, hepatoprotective activity percent ([3]; 25 mg/kg p.o. + CCl4, curative): (36.23 ± 18.23) percent | Serum ALP ([3]; 50 mg/kg p.o. + CCl4, curative): 43.63 ± 2.82 μmole of p-nitrophenol formed/min/L | Serum ALP, hepatoprotective activity percent ([3]; 50 mg/kg p.o. + CCl4, curative): (51.57 ± 6.78) percent | Serum Bilirubin ([3]; 50 mg/kg p.o. + CCl4, curative): 0.39 ± 0.02 mg % | Serum Bilirubin, hepatoprotective activity percent ([3]; 50 mg/kg p.o. + CCl4, curative): (64.25 ± 3.76) percent | Serum GOT ([3]; 50 mg/kg p.o. + CCl4, curative): 365.43 ± 29.43 Units | Serum GOT, hepatoprotective activity percent ([3]; 50 mg/kg p.o. + CCl4, curative): (60.50 ± 4.33) percent | Serum GPT ([3]; 50 mg/kg p.o. + CCl4, curative): 582.12 ± 37.77 Units | Serum GPT, hepatoprotective activity percent ([3]; 50 mg/kg p.o. + CCl4, curative): (64.76 ± 2.62) percent | Serum Triglycerides ([3]; 50 mg/kg p.o. + CCl4, curative): 11.06 ± 0.61 mg % | Serum Triglycerides, hepatoprotective activity percent ([3]; 50 mg/kg p.o. + CCl4, curative): (48.86 ± 10.64) percent | Serum ALP [3, 12]: 32.93 ± 2.13 μmole of p-nitrophenol formed/min/L | Serum ALP, hepatoprotective activity percent [3, 12]: (77.31 ± 5.13) percent | Serum Bilirubin [3, 12]: 0.29 ± 0.02 mg % | Serum Bilirubin, hepatoprotective activity percent [3, 12]: (76.54 ± 3.66) percent | Serum GOT [3, 12]: 318.96 ± 16.15 Units | Serum GOT, hepatoprotective activity percent [3, 12]: (67.35 ± 2.38) percent | Serum GPT [3, 12]: 457.55 ± 18.18 Units | Serum GPT, hepatoprotective activity percent [3, 12]: (73.41 ± 1.26) percent | Serum Triglycerides [3, 12]: 10.37 ± 0.65 mg % | Serum Triglycerides, hepatoprotective activity percent [3, 12]: (61.02 ± 11.24) percent
